Experimental data reported in patent EP1336402B1, “Association of diguanosine tetraphosphate and nicotinic derivatives used for the treatment of capillary disorders, in particular the treatment of hair loss” (Pierre Fabre Dermo-Cosmetique, priority 2002, dated 2003).

Experiments:
[1] = tested on: co-culture de cellules endothéliales humaines et de fibroblastes humains; assay: in vitro angiogenesis model: co-culture, tubule length quantified by image analysis after 12 days; format: cell-based; conditions: 12 days of culture, untreated control 4150
Source text: Par ailleurs, la composante vasculaire jouant un rôle fondamental dans la croissance du follicule pileux, l'influence des principes actifs précédemment décrits sur ce paramètre a été évaluée sur un modèle d'angiogénèse in vitro.
Le modèle repose sur une co-culture de cellules endothéliales humaines et de fibroblastes humains (kit angiogénèse Bioprédic International), qui est réalisée en présence ou pas des actifs à tester.
Les cellules endothéliales migrent à travers la matrice pour former des structures tubulaires, qui sont quantifiées au bout de 12 jours de culture. La quantification de la longueur des capillaires est réalisée par analyse d'image.

[2] = tested on: cellules de la papille dermique du follicule pileux; assay: cell metabolism of dermal papilla cells in monolayer culture; format: cell-based; conditions: for augmentation du métabolisme cellulaire: culture mono-couche, concentrations not given
Source text: L'intérêt de l'association de ces deux actifs a été confirmé sur d'autres modèles cellulaires, notamment sur le métabolisme des cellules de la papille dermique du follicule pileux en culture mono-couche, où l'association GP4G + nicotinate de tocophérol a montré une augmentation de + 26,2 % du métabolisme cellulaire, supérieure à celle des actifs testés seuls (12,6 % et 18,3 % respectivement).

Cc1ccc(C(=O)Nc2ccc(S(=O)(=O)O)c3cc(S(=O)(=O)O)cc(S(=O)(=O)O)c23)cc1NC(=O)c1cccc(NC(=O)Nc2cccc(C(=O)Nc3cc(C(=O)Nc4ccc(S(=O)(=O)O)c5cc(S(=O)(=O)O)cc(S(=O)(=O)O)c45)ccc3C)c2)c1 [Suramine, reference compound]
LONGUEUR DES TUBULES PAR CHAMP DE COMPTAGE Moyenne ([1]; Suramine 20 µM): 3072

Nc1cc(N2CCCCC2)nc(N)[n+]1[O-] [Minoxidil, reference compound]
LONGUEUR DES TUBULES PAR CHAMP DE COMPTAGE Moyenne ([1]; Minoxidil 25 µg/ml): 7662

Cc1c(C)c2c(c(C)c1OC(=O)c1cccnc1)CCC(C)(CCCC(C)CCCC(C)CCCC(C)C)O2 (stereo not drawn) [Nicotinate de tocophérol, Alpha Tocophéryl Nicotinate]
LONGUEUR DES TUBULES PAR CHAMP DE COMPTAGE Moyenne ([1]; 1 µg/ml): 4015
LONGUEUR DES TUBULES PAR CHAMP DE COMPTAGE Moyenne ([1]; 10 µg/ml): 4634
LONGUEUR DES TUBULES PAR CHAMP DE COMPTAGE Moyenne ([1]; 20 µg/ml): 5363
augmentation du métabolisme cellulaire [2]: 18,3%

diguanosine tétraphosphate [GP4G]
LONGUEUR DES TUBULES PAR CHAMP DE COMPTAGE Moyenne ([1]; GP4G 0.01 %): 3814
LONGUEUR DES TUBULES PAR CHAMP DE COMPTAGE Moyenne ([1]; GP4G 0.1 %): 4040
LONGUEUR DES TUBULES PAR CHAMP DE COMPTAGE Moyenne ([1]; GP4G 1.0 %): 6803
augmentation du métabolisme cellulaire [2]: 12,6%
métabolisme des cellules de la papille dermique (CPD) ([2]; en présence de GP4G, result in words): augmentation fonction-dose
